Results taken from US6020374A, “Biologically active synthetic dye compounds” (priority 1998, dated 2000).

Experiments:
IGF-1 receptor β subunit = biological target: T1, IGF-1 receptor β subunit (Homo sapiens, UniProt P08069); assay: Tyrosine phosphorylation of IGF-1 receptor in MCF-7 cells; assay type: cell-based; conditions: 5 mins., ATA, EB each at 300 μg/ml
T1 construct: endogenous in cells; host or cells: MCF-7
Description: FIG. 6 is the effect of ATA and EB on tyrosine phosphorylation of IGF-1 receptor: MCF-7 cells, grown in 100 mm dishes, were treated with ATA, EB each at 300 μg/ml, or 20 ng/ml IGF-1 for 5 mins. Total cell extracts, solubilized in Buffer A, were immunoprecipitated with IGF1R antibody. The immunocomplexes precipitataed with protein G-Sepharose beads, were subjected to 7.5% SDS-PAGE followed by immunoblotting with a phosphotyrosine antibody. The membrane, after ECL detection, was stripped of bound antibody and reblotted with IGF1R antibody (IGF1R).
(§1) Cells were solubilized in Buffer A or C. Extracts were immunoprecipitated at 4° C. with antibodies to IRS-1, IRS-2, IGF-1 or IR receptor or Grb2, adsorbed on protein A-Sepharose beads. The immunocomplexes were pelleted by centrifugation at 12,000×g and washed twice with Buffer A, and twice with Buffer A containing 0.1% Triton x-100. The pellets were then suspended in Laemmli sample buffer and resolved on 7.5% SDS-PAGE.
Nitrocellulose blots of proteins were incubated with the antibodies, and proteins were detected by enhanced chemiluminescence using horseradish peroxidase-labeled protein A, horseradish peroxidase-labeled anti rabbit IgG or horseradish peroxidase-labeled anti-mouse IgG. […]

3T3 L1 adipocytes [1] = assay: Glycogen synthesis in 3T3 L1 adipocytes; assay type: cell-based; conditions: 20 mins., EB, ATA 200 μg/ml, insulin 600 ng/ml
Description: (§2) FIG. 11 is the metabolic effects in 3T3 L1 adipocytes: Fully differentiated 3T3 L1 adipocytes were incubated with EB, ATA or fuchsin (FUCH) each at 200 μg/ml, or with 600 ng/ml of insulin for 20 mins. (A, B, C) or 5 mins. (D). CON indicates no additive.
B--Glycogen synthesis. Cells were incubated with (^14 C)-glucose for 10 mins. Radioactivity was determined in the precipitated glycogen fraction.

IR = biological target: T2, IR (Rattus norvegicus, UniProt P15127); assay: Tyrosine phosphorylation of IR in FaO cells; assay type: cell-based; conditions: EB; for Tyrosine phosphorylation of IR: 5 mins., ATA at 200 μg/ml
T2 construct: determined in the rat hepatoma cell line FaO; endogenous in cells; host or cells: FaO (rat hepatoma)
Description: FIG. 9 is the tyrosine phosphorylation of the IR cascade in Fao cells: A--Immunoblot analysis: Fao cells were deprived of serum for 20 hours, then incubated with EB, ATA, at 200 μg/ml or insulin at 600 ng/ml for 5 mins. Cell extracts were subjected to immunoprecipitation with antibodies to: IR β-subunit (αIR), IRS-1 (αIRS-1) and to IRS-2 (αIRS-2). The immunoprecipitates and total cell extracts were analyzed by SDS-PAGE. Proteins were transferred to nitrocellulose papers, and phosphotyrosine containing proteins were probed with anti-phosphotyrosine antibodies (αP-Tyr), antibody to the 85-kDa subunit of PI3-kinase (αp85) and antibodies to active MAPK (α active MAPK). The immunoblots were visualized by ECL (Amersham).
B--Kinetics of IR phosphorylation: Cells were treated either with 200 μg/ml EB for the indicated times (top panel) or with the indicated concentrations of EB for 5 mins. (middle panel). A 3 hour preincubation with vanadate preceded the 5 min. incubations with EB and insulin (bottom panel).
MCF-7 cells were grown in 35 or 100 mm dishes in DMEM with 5% bovine fetal serum. Rat hepato FaO cells were grown in RPMI 1640 medium supplemented with 10% fetal calf serum. Subconfluent monolayers of MCF-7 cells or FaO cells, were deprived of serum for 20 hours prior to each experiment. The medium was removed, and cells were incubated at 37° C. under the conditions as indicated for each experiment. The reaction was terminated by removing the medium and freezing the monolayers with liquid nitrogen. In some experiments, cells were preincubated with 50 μM sodium orthovanadate for 3 hours.
as §1
(§3) Nitrocellulose blots of proteins were incubated with the antibodies, and proteins were detected by enhanced chemiluminescence using horseradish peroxidase-labeled protein A, horseradish peroxidase-labeled anti rabbit IgG or horseradish peroxidase-labeled anti-mouse IgG.
The ability of EB and ATA to phosphorylate the IR was determined in the rat hepatoma cell line FaO. […] Phosphorylation is maximal after a 1 min. exposure to 70 μg/ml of EB (FIG. 9B, top and middle panels).

3T3 L1 adipocytes [2] = assay: Lipogenesis in 3T3 L1 adipocytes; assay type: cell-based; conditions: 20 mins., EB, ATA 200 μg/ml, insulin 600 ng/ml
Description: as §2
C--Lipogenesis. Cells were incubated with 5 mM(U-^14 C) glucose (1 μCi/ml) for 60 mins. Radioactivity was determined in the cellular lipid fraction.

PI3-kinase [3] = assay: Anti-IRS-1 precipitable PI3-kinase activity in MCF-7 cells; assay type: cell-based; conditions: 5 mins., ATA or EB 300 μg/ml
Description: FIG. 5 is the effect of ATA and EB on the anti-IRS-1 precipitable PI3-kinase activity: Cells were treated as in FIG. 3a. Anti-IRS-1 immunoprecipitates were washed and the pellets incubated with phosphatidyl inositol and γ^32 P-ATP.
Phosphorylation of phosphatidyl inositol was measured as follows. Cells were solubilized in Buffer C and the extracts immunoprecipitated at 4° C. with IRS-1 antibody and adsorbed onto protein A-Sepharose beads. The immunoprecipitates were washed three times with Buffer C and then washed once with Buffer B, Buffer E and Buffer F. The lipid kinase reaction was initated by addition of 100 μl sonicated phosphatidylinositol (10 μg) in kinase buffer (20 mM Hepes, pH 7.5, 10 mM MnCl2 and 10 mM MgCl2) containing 10 μCi [γ^32 P]ATP (3000 ci/m mol; Amersham). The reaction was performed at room temperature for 10 mins. and terminated by the addition of 100 μl 1 N HCl. Lipids were extracted by addition of 200 μl of a 1:1 mixture of chloroform/methanol, followed by vortexing and centrifugation at 14,000×g for 10 mins. The chloroform-containing lipid phase was then re-extracted with 150 μl of a 1:1 mixture of 1N HCl/methanol, followed by vortexing and centrifugation at 14,000×g for 10 mins. The 30 μl of the chloroform phase were resolved by thin layer chromatography using a chloroform/methanol/ammonium hydroxide (90:70:20 v/v)) running buffer. […]

3T3 L1 adipocytes [4] = assay: 2-deoxyglucose uptake in 3T3 L1 adipocytes; assay type: cell-based; conditions: 20 mins., EB, ATA 200 μg/ml, insulin 600 ng/ml
Description: as §2
A--2-deoxyglucose uptake. Hexose uptake was measured for 10 mins. using 50 μM 2-deoxy-(^3 H) glucose (1 μCi/ml). Non-specific uptake was determined in the presence of cytochalasin B (50 μM).

[5] = tested on: MAPK-1 (44 kDa) and MAPK-2 (42 kDa); assay: Activation of MAPKs in MCF-7 cells (anti-active MAPK immunoblot); assay type: cell-based; conditions: 5 mins., ATA, EB each at 300 μg/ml, IGF-1 20 or 40 ng/ml
Description: FIG. 7 is the effect of ATA and EB on activation of MAPKs: MCF-7 cells were treated for 5 mins. with ATA, EB, each at 300 μg/ml, 20 ng/ml or 40 ng/ml IGF-1. Cell lysates, solubilized in Buffer C, were subjected to 12% SDS-PAGE and immunoblotted with an anti-active MAPK antibody. The membrane, after ECL detection, was stripped of bound antibody and blotted with an anti-MAPK antibody.
as §3
The activated forms of MAPKs were detected by anti-active MAPK immunoblotting in the MCF-7 cell's lysates. […] Blotting with anti MAPKs antibodies confirms that similar amounts of MAPKs were present in treated and non-treated cells.

[6] = tested on: IR, IRS-1 and the 85-kDa regulatory subunit of PI3-kinase; assay: In vivo tyrosine phosphorylation of the IR cascade in rat liver; conditions: Sprague-Dawley male rats, portal vein injection, EB 20 mg/rat, insulin 1 u/rat
Description: A--Immunoblot analysis. Rat liver extracts were subjected to immunoprecipitation and blotting with the indicated antibodies, as described in the legend to FIG. 9A.
(§4) EB (20 mg/rat) or insulin (1 u/rat) was injected into about 120 g weighing Sprague-Dawley male rats, via the portal vein. Control rats were injected with saline (SAL) alone. The rats were killed and the livers excised and frozen in liquid nitrogen at the indicated times.

PI3-kinase [7] = assay: In vivo PI3-kinase activity in rat liver; conditions: Sprague-Dawley male rats, portal vein, 5 mins. after injection, EB 20 mg/rat, insulin 1 u/rat
Description: B--Induction of PI3-kinase. PI3-kinase activity, 5 mins. after injection was assayed as described in FIG. 9C. The results are representative of 2 to 4 independent experiments.
as §4

T2 sequence (P15127 764-1383 limits assumed): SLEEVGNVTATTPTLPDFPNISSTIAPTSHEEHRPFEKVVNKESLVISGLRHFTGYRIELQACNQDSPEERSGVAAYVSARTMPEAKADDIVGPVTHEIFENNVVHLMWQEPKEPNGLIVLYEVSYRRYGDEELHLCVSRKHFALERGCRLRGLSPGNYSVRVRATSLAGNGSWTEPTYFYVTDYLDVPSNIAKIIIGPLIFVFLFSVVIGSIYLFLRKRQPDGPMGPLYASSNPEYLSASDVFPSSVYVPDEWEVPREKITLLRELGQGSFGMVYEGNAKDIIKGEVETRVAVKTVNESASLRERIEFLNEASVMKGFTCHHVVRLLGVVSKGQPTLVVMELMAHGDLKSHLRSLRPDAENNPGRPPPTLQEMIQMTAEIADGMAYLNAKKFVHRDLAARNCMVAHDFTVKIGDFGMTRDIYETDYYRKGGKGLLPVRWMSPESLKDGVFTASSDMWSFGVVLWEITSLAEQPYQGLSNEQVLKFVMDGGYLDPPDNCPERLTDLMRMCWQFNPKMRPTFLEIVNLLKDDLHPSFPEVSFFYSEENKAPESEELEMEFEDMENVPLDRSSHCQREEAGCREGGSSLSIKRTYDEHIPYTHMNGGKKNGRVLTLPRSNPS
T2 sequence (P15127 27-759 limits assumed): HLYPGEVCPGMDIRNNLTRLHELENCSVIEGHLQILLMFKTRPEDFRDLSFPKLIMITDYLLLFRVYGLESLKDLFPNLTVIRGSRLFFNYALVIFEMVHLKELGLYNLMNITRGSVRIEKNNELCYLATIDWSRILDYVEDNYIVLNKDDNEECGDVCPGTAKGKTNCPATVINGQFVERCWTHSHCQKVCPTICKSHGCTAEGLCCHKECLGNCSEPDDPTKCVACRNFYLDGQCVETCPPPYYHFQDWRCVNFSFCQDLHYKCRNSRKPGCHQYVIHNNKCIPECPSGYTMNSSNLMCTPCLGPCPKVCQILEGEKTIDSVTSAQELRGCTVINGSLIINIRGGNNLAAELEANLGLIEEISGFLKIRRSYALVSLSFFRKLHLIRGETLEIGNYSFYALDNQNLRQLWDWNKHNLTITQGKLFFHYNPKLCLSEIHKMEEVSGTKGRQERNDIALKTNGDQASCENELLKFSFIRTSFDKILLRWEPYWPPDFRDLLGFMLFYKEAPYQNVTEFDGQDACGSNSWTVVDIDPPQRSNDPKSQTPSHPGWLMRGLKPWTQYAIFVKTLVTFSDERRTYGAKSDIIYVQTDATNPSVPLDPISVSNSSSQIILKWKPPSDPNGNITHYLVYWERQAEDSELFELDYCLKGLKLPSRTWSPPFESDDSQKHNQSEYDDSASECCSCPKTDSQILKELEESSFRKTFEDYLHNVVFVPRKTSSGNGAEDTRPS
T1 sequence (P08069 741-1367 limits assumed): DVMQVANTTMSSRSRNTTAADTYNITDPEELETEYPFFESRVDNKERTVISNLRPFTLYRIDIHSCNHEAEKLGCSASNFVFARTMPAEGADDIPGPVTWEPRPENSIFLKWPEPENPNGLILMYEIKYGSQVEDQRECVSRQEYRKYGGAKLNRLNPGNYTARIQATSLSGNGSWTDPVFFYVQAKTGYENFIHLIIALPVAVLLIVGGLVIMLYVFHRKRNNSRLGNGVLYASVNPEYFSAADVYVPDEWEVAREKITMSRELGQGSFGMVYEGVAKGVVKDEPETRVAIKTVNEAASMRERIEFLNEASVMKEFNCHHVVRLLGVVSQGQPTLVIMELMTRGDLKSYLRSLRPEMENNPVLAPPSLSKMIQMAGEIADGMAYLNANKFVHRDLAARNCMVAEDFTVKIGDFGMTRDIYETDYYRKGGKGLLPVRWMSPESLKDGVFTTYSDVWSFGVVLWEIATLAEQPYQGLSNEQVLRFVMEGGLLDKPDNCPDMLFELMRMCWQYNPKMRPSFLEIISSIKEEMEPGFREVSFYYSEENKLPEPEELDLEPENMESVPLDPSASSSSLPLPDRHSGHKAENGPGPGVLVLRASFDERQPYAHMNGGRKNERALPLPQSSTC
T1 sequence (P08069 31-736 limits assumed): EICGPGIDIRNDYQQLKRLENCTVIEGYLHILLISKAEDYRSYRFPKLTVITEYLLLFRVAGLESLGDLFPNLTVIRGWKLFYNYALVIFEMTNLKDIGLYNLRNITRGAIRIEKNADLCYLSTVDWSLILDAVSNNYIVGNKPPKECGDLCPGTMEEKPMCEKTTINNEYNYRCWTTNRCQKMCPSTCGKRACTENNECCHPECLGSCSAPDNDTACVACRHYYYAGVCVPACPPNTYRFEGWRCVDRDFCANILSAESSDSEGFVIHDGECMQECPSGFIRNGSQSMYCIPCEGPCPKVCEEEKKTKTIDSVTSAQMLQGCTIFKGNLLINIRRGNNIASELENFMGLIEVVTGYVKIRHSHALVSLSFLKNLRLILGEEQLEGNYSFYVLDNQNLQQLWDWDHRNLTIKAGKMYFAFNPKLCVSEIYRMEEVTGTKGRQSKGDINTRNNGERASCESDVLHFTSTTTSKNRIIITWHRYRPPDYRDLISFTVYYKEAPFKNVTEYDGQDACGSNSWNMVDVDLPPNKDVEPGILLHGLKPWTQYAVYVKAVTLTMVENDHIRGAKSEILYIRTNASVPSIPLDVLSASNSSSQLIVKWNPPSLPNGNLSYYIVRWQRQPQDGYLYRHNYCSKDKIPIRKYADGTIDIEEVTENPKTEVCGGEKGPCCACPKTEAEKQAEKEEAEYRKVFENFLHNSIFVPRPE

| SMILES | Tyrosine phosphorylation of IGF-1 receptor β subunit (IGF-1 receptor β subunit) | Glycogen synthesis (3T3 L1 adipocytes [1]) | Tyrosine phosphorylation of IR (IR) | Lipogenesis (3T3 L1 adipocytes [2]) | PI3-kinase activity (anti-IRS-1 precipitable) (PI3-kinase [3]) | Glucose uptake (3T3 L1 adipocytes [4]) | Phosphorylated (active) isoforms MAPK-1 and MAPK-2 [5] | Tyrosine phosphorylation of IR, IRS-1 and 85-kDa subunit of PI3-kinase in liver [6] | PI3-kinase activity in liver (PI3-kinase [7]) | Concentration of maximal IR phosphorylation (IR) | Exposure time of maximal IR phosphorylation (IR) |
| --- | --- | --- | --- | --- | --- | --- | --- | --- | --- | --- | --- |
| O=C(O)C1=CC(=C(c2ccc(O)c(C(=O)O)c2)c2ccc(O)c(C(=O)O)c2)C=CC1=O [ATA, Aurintricarboxylic acid] | phosphorylated the IGF-1 receptor β subunit | increase | phosphorylates IR on tyrosine residues, similar to insulin | increase | increases PI3-kinase activity similar to IGF-1 | increase glucose uptake | clearly detected | – | – | – | – |
| Cc1cc(-c2ccc(N=Nc3ccc4c(S(=O)(=O)O)cc(S(=O)(=O)O)c(N)c4c3O)c(C)c2)ccc1N=Nc1ccc2c(S(=O)(=O)O)cc(S(=O)(=O)O)c(N)c2c1O [EB, Evan's Blue] | phosphorylated the IGF-1 receptor β subunit | increase | phosphorylates IR on tyrosine residues, similar to insulin | increase | increases PI3-kinase activity similar to IGF-1 | increase glucose uptake | clearly detected | phosphorylated tyrosines of IR, IRS-1 and the 85-kDa of the regulatory subunit of PI3-kinase | increased | 70 µg/mL | 1 min |
